From a melting point compilation (Tetko et al.; mined from patent text by program, amines drawn as free bases though some values may be those of a salt) come the findings set out here.

Regarding `Cc1c(Cl)nc(NC=O)nc1Cl`, the melting point lay within 123 to 124 °C.
For the compound `CON=C1[C@@H](c2cc(OC)c(OC)c(OC)c2)CC[C@@H]1c1cc(OC)c(OC)c(OC)c1` (relative stereo), the melting point fell in the range of 61 to 63 °C.
Take `COc1cc(CO)ccc1OCc1coc(-c2ccco2)n1`: the melting point is 117 to 118 °C.
As to `N#Cc1c(Cl)c2cc(F)cnc2[nH]c1=O`, the melting point is 272 °C.
In turn, `CSCC(=O)[C@H](CCc1ccccc1)NC(=O)[C@H](CC(C)C)NC(=O)OCc1ccccc1` yielded a melting point of 119 to 120 °C.
For the compound `CC(C)SC[C@@H](C[C@H](O)[C@H](CC1CCCCC1)C(=O)OC(C)(C)C)C(C)C`, the melting point lay within 107 to 108 °C.
The result for `CCCCCOc1nc(Cl)nc2ccccc12` reads 32 to 34 °C; that for `CCOC(=O)C1C(=O)c2ccccc2OC1C(F)(F)F` (stereo not drawn), 80.2 to 84.9 °C; that for `CC(C)(C(=O)O)c1ccc(OCCNC(=O)C2Cc3ccccc3N2S(=O)(=O)c2ccc(-c3cc(C(F)(F)F)ccc3Cl)cc2)cc1` (stereo not drawn), 92 to 100 °C.
In the case of `Cn1c(CC#N)ccc1C(=O)c1ccc(Cl)cc1` it was 120 to 124 °C.
`Nc1nc(NCCNCC(O)COc2ccccc2)c2[nH]cnc2n1` (stereo not drawn) yielded a melting point of 169 to 171 °C.
`CCC(C)c1ccc2c(c1)C(=O)N(c1ccc3c(ccn3C)c1)C2` (stereo not drawn) came in with a melting point of 146 to 147 °C.
The result for `O=C1c2ccccc2C(=O)c2oc(-c3ccc(Cl)cc3)nc21` reads over 260 °C; that for `CCc1cccc(C(O)CC)c1NC(=O)CC1c2ccccc2Oc2ccccc21` (stereo not drawn), 167 to 168 °C; that for `COC(=O)c1cc(C(=O)NCCF)c2cc(Cc3ccc(F)cc3)cnc2c1O`, 216 to 217 °C.
Consider `CC(NC(Nc1cc(C(F)(F)F)cc(C(F)(F)F)c1)=C(C#N)S(=O)(=O)C(C)C)C(C)(C)C` (stereo not drawn), for which the melting point lay in the range of 177 to 180 °C.
The result for `O=C(NO)[C@H](CNCS(=O)(=O)c1ccc(OCc2ccccc2)cc1)N1CCCCC1` reads 102 °C; that for `CN1CCN(c2cc(Cl)cc3c2c(=O)n(Cc2ccccc2Br)c(=O)n3Cc2ccccc2)CC1`, 91 to 93 °C.
In turn, `COc1ccc(CCCCCCCC(=O)O)cc1` came in with a melting point of 42 to 43 °C.
`CS(=O)(=O)c1ccc(-c2sc(-c3ccccc3Cl)nc2-c2cccs2)cc1` yielded a melting point of 171 to 174 °C.
Turning to `CCOC(=O)c1ccc(N2CCOCC2)cc1`, the melting point is 82 to 83 °C.
In the case of `O=C(NCCO)/C(=C/c1ccc(C2CC2)cc1)NC(=O)c1ccc(OCCc2ccccc2)cc1` it was 113 to 115 °C; in that of `CC(=O)Nc1c(C#N)cnn1-c1c(Cl)cc(C(F)(F)F)c(Cl)c1Cl`, 177 to 178 °C.
In turn, `CCOC(=O)C1=C(C)NC(N)=C(C(=O)OCC)C1c1cccc2ccccc12` (stereo not drawn) registered a melting point of 174 °C.
On to `Cc1ccc(N=c2ccn3ccccc3c2)cc1C`, for which the melting point fell in the range of 185 to 187 °C.
`CC(C)(C)OC(=O)CNc1nccc(-c2nc(=O)c3ccccc3s2)n1` came in with a melting point of 247 to 248 °C.
In turn, `O=C(Nc1ccc(Cl)c(Cl)c1)OC1CN2CCC1CC2` (stereo not drawn) showed a melting point of 181 to 184 °C.
Regarding `CC(=O)SCC(=O)Nc1ccc(C(=O)NCCO)cc1`, the melting point is 190 to 192 °C.
The compound `O=C(Nc1ccc(-n2cnc(Cl)c2Cl)cc1)Nc1ccc(C(F)(F)F)cc1` gave a melting point of 221 to 224 °C.
For the compound `CNC(=O)c1cc2c(nc(C)n2C)c2c1CCC(c1ccccc1)N2` (stereo not drawn), the melting point is 259 °C.
In the case of `C(=C\c1nc(COc2ccc(CCCn3cnnn3)cc2)co1)/c1ccccc1` it was 147 to 148 °C; in that of `COc1cc(C(=O)NS(=O)(=O)c2ccccc2Cl)ccc1Cc1c(Cl)n(C)c2ccc(CCNC(=O)N(C)C)cc12`, 204 to 206 °C; in that of `Cc1nc(N(Cc2ccccc2)Cc2ccccc2)c2nc(Cc3ccccc3)n(CCc3ccccc3)c2c1C`, 139 to 141 °C.
Consider `CC(=O)NCc1nc(-c2ccc3c(c2)Nc2ccccc2S3)cs1`, for which the melting point is 219 to 221 °C.
With `CC(C)C1=NCCSC1=NOC(=O)N(C)SN1CCOCC1`, the melting point lay within 127 to 128 °C.
The compound `N#Cc1cccc(OCc2cccc(OCc3ccc4ccccc4n3)c2)c1` gave a melting point of 86 to 87 °C.
Take `CC(=O)c1cc(Cl)c(OCCOc2ccc3ccccc3c2)c(Cl)c1`: the melting point was in the range of 110 to 111 °C.
`CNC(=O)[C@H](CO[Si](C)(C)C(C)(C)C)NC(=O)Nc1n[nH]c(=S)s1` had a melting point of 213 to 214 °C.
`Cc1ccc(-c2cccc(/C=C/C(=O)O)c2)cc1` yielded a melting point of 186 to 187 °C.
In the case of `CCOC(=O)CCC(=O)c1ccc(CCCCN2CCN(c3cccc(C)c3)CC2)cc1` it was 62 to 63 °C.
Regarding `COC(=O)COc1ccc2c(O)c(C(C)=O)ccc2c1`, the melting point was 118 to 120 °C.
On to `Cc1cccc2c(C(CO)=C3SC(=O)NC3=O)cccc12`, for which the melting point fell in the range of 160 to 161 °C.
`O=C(Nc1ccc(N2CCNCC2)cc1)c1ccccc1-c1ccc(C(F)(F)F)cc1` yielded a melting point of 119 to 124 °C.
In the case of `CC(CC(=O)NO)c1cccc(Nc2ccccc2-c2n[nH]c(=S)o2)c1Cl` (stereo not drawn), the melting point lay in the range of 205 to 207 °C.
The result for `CCC12CCC3C4=C(CCC3C1CCC2O)CC(OC)=CC4` (stereo not drawn) reads 98 to 104 °C; that for `COc1cc(OCC(=O)O)c(C)cc1SCc1ccc(-c2cccc(C(F)(F)F)c2)cc1`, 138 to 139 °C; that for `COC(=O)c1ccc(-c2nc(-c3ccc(C(C)C)cc3)cs2)cc1`, 134 to 135 °C.
With `COc1ccc(C2=C(C=O)CCc3cc(OC)ccc32)cc1`, the melting point lay within 104 to 105 °C.
The compound `CCOC(=O)c1cc(-c2csc(C)n2)[nH]n1` came in with a melting point of 141 to 142 °C.
The result for `CCc1nn(C2CCCC2)c2c1CCn1c-2nnc1C(C)(C)C` reads 150 to 151 °C; that for `O=C(C[C@H](NC(=O)OCc1ccccc1)C(=O)Nc1cc(Cc2n[nH]c(=O)c3ccccc23)ccc1F)OCc1ccccc1`, 76 to 80 °C; that for `CCOc1nc2c(C(=O)OC)sc(C)c2[nH]1`, 209 to 210 °C.
Compound `Cc1nc(N)c2nc(C)n(CCOCCCc3ccccc3)c2c1C` registered a melting point of 118 to 119 °C.
Regarding `Cc1nn(-c2ccc(C(F)(F)F)cn2)cc1COc1ccc(OC(C)(C)C(=O)O)cc1`, the melting point lay in the range of 106 to 107 °C.
The result for `COc1ccc2cc(Br)sc2c1` reads 62 °C.
As for `CCOC(=O)C(=CNc1ccnc(-c2ccncc2)n1)C(=O)OCC`, the melting point is 143 to 145 °C.
Compound `O=P(O)(O)C1CCCN1` (stereo not drawn) had a melting point of 275 to 280 °C.
`O=C(NC1(C2CC2)CC1)c1c(NC(=O)c2cc(C(F)(F)F)nn2-c2ncccc2Cl)c(Cl)cc2cn[nH]c12` returned a melting point of over 250 °C.
`COc1ccc2c(O)c(C(=O)NCCO)nc(Cl)c2c1` showed a melting point of 165 to 167 °C.
In the case of `COc1cc(OC)c(OC)c(-c2ccc(N(C)CCN(C)c3ccc(-c4cc(OC)cc(OC)c4OC)nc3)cn2)c1` it was 171 to 172 °C.
In the case of `N#CNC(=S)Nc1ccc(OCc2ccccc2)cc1` it was over 270 °C; in that of `COCOc1ccc2c(c1)OC(C)(C)CC2=O`, 77 to 79 °C; in that of `COc1cccc(NC(=O)NC(C(C)C)C2CCN(Cc3ccc(Cl)c(Cl)c3)CC2)c1` (racemic), 161 to 162 °C.
`COC(=O)c1ccccc1Nc1ccccc1` had a melting point of 92.5 to 102 °C.
The result for `COc1ccc(-c2cc(Cl)c3cc(O)c(Br)cc3c2)cc1` reads 138 to 139 °C.
Compound `Cc1sc(-c2ccccc2)nc1COc1cc(COc2ccccc2CC(=O)O)on1` came in with a melting point of 147 to 148 °C.
The result for `COc1ccc([C@H](Sc2cc(Oc3ccc4c(c3)OCO4)ccc2N)[C@@H](O)C(=O)O)cc1` reads 112 to 113 °C.
The result for `COc1ccc(C(=O)c2ccccc2N)cn1` reads 60 to 62 °C; that for `CCCCCNC(=NC#N)Nc1cccnc1`, 130 to 132 °C; that for `COc1ccc2[nH]cc(C3=C(c4cc(OC)c(OC)c(OC)c4)C(=O)NC3=O)c2c1`, 268 °C.
As to `CCc1noc(=O)c2ccc(NC(=O)C(=O)CC(C)(C)c3cc(F)ccc3OC)cc12`, the melting point was 157 to 158 °C.
In the case of `O=[N+]([O-])c1ccc(F)cc1CS(=O)(=O)c1cccc2ccccc12`, the melting point lay within 155 to 160 °C.
Compound `CC1(CCN2CCN(C(C)(C)C)C(=O)C2)Cn2cc([N+](=O)[O-])nc2O1` (stereo not drawn) displayed a melting point of 153 to 154 °C.
`Cc1nc(N)ccc1-c1ccccc1` returned a melting point of 110 to 113 °C.
In turn, `COc1cc2c(=O)n(CCCn3ccnc3)c3c4ccccc4[nH]c(=O)c3c2cc1OC` registered a melting point of 288 to 290 °C.
With `ON=C(c1cccc(F)c1)c1ccc(O)c(Cl)c1Cl`, the melting point was in the range of 178 to 185 °C.
In turn, `Cc1cc(N2CC=C(C(N)=O)CC2)c2cccc(Br)c2n1` had a melting point of 225 to 227 °C.
In turn, `COC(=O)CC(NSc1ccccc1[N+](=O)[O-])C(=O)O` (stereo not drawn) showed a melting point of 108 to 109 °C.
`O=C(NCCN1CCOCC1)c1ccc(-c2ccc3nnn(Cc4ccc5ncccc5c4)c3n2)cc1` had a melting point of 146 to 149 °C.
In turn, `CC1(C)C(C(=O)O)C1(C)C` came in with a melting point of 120 °C.
The result for `O=C(CN1CCC(c2noc3cc(F)ccc23)CC1)N1Cc2ccccc2C1` reads 184 to 185 °C; that for `COC(=O)C1=C(C)NC(C)=C(C#N)C1c1cccc2ncc(-c3ccccc3)cc12` (stereo not drawn), 242 °C.
Compound `O=C1NC(=O)C2c3cccc4cccc(c34)C12` (stereo not drawn) came in with a melting point of 242 to 246 °C.
`CCCOc1ccccc1-c1nc2nnc(OC)nc2c(=O)[nH]1` displayed a melting point of 221 to 222 °C.
Turning to `Nc1c(Cl)cc(-c2nn(C3CCN(CCCC(F)(F)F)CC3)c(=O)o2)c2c1OCCO2`, the melting point worked out at 188 °C.
The result for `CCc1cc(C(=O)c2ccccc2Cl)c(-n2cnnc2CNC(=O)c2ccc(Cl)c(Cl)c2)s1` reads 158 to 160 °C; that for `O=C(NCCC12CC3CC(CC(C3)C1)C2)c1cccc(Cl)c1Cl`, 158 to 159 °C.
In turn, `CCCCc1ccc(CNc2cc(C(=O)Nc3ccccc3)ccc2OC)cc1` displayed a melting point of 171 to 173 °C.

What is called melting point is the temperature of the solid-liquid transition.
